# Test system: HCV genotype 1b replicon
# Experiment: HCV replicon assay, cell ELISA with antibody to replicon-encoded NS3/4A (genotype 1b replicon)
# Format: cell-based, hepatitis C virus
# Conditions: Hepatitis C virus, 96 h, read-out: 1b IC50(nM), HCV genotype 1b replicon; 96 hours incubation; NS3/4A cell ELISA
# Procedure: The HCV NS5B inhibitory activity of the present compounds may be tested using assays known in the art. The HCV NS5B polymerase inhibitors described herein have activities in a genotype 1b replicon assay as described in the Examples. The assay is performed by incubating a replicon harboring cell-line in the presence of inhibitor for a set period of time and measuring the effect of the inhibitor on HCV replicon replication either directly by quantifying replicon RNA level, or indirectly by measuring enzymatic activity of a co-encoded reporter enzyme such as luciferase or β-lactamase. By performing a series of such measurements at different inhibitor concentrations, the effective inhibitory concentration of the inhibitor (EC50 or EC90) is determined. See Jan M. Vrolijk et al., A replicons-based bioassay for the measurement of interferons in patients with chronic hepatitis C, 110 J. VIROLOGICAL METHODS 201 (2003). Such assays may also be run in an automated format for high through-put screening. See Paul Zuck et al., A cell-based β-lactamase reporter gene assay for the identification of inhibitors of hepatitis C virus replication, 334 ANALYTICAL BIOCHEMISTRY 344 (2004).
# Measurement of inhibition by compounds was performed using the HCV replicon system. Several different replicons encoding different HCV genotypes or mutations were used. In addition, potency measurements were made using different formats of the replicon assay, including different ways of measurements and different plating formats. See Jan M. Vrolijk et al., A replicons-based bioassay for the measurement of interferons in patients with chronic hepatitis C, 110 J. VIROLOGICAL METHODS 201 (2003); Steven S. Carroll et al., Inhibition of Hepatitis C Virus RNA Replication by 2′-Modified Nucleoside Analogs, 278(14) J. BIOLOGICAL CHEMISTRY 11979 (2003). However, the underlying principles are common to all of these determinations, and are outlined below.
# Stable neomycin phosphotransferase encoding replicons-harboring cell lines were used, so all cell lines were maintained under G418 selection prior to the assay. Potency was determined using a cell ELISA assay with an antibody to the replicons encoded NS3/4a protease. See Caterina Trozzi et al., In Vitro Selection and Characterization of Hepatitis C Virus Serine Protease Variants Resistant to an Active-Site Peptide Inhibitor, 77(6) J. Virol. 3669 (2003). To initiate an assay, replicon cells were plated in the presence of a dilution series of test compound in the absence of G418. Typically, the assays were performed in a 96-well plate formate for manual operation, or a 384-well plate format for automated assay. Replicon cells and compound were incubated for 96 hours. At the end of the assay, cells were washed free of media and compound, and the cells were then lysed. RNA was quantified indirectly through detection of replicon-encoded NS3/4A protein levels, through an ELISA-based assay with an antibody specific for NS3/4A. IC50 determinations were calculated as a percentage of a DMSO control by fitting the data to a four-parameter fit function and the data obtained is provided in the table below.
row,Structure (SMILES),IC50
1,CNC(=O)c1c(-c2ccc(F)cc2)oc2cc(N(CC(F)F)S(C)(=O)=O)c(-c3cc(F)cc(-c4nc5ncccc5o4)c3)cc12 [Example 876],3.5 nM
2,CNC(=O)c1c(-c2ccc(F)cc2)oc2cc(N(CCC(O)CC#N)S(C)(=O)=O)c(-c3ccc(OC)c(-c4nc5c(F)cccc5o4)c3)cc12 (stereo not shown) [Example 821],3.27 nM
3,CNC(=O)c1c(-c2ccc(F)cc2)oc2cc(N(CC(F)F)S(C)(=O)=O)c(-c3ccc(OC)c(-c4nc5ncccc5o4)c3)cc12 [Example 877],5.1 nM
4,CNC(=O)c1c(-c2ccc(F)cc2)oc2cc(N(CC3(C)COC3)S(C)(=O)=O)c(-c3ccc(OC)c(-c4nc5c(F)cc(F)cc5o4)c3)cc12 [Example 725],10.5 nM
5,CNC(=O)c1c(-c2ccc(F)cc2)oc2cc(N(CCF)S(C)(=O)=O)c(-c3ccc(OC)c(-c4nc5ncccc5o4)c3)cc12 [Example 870],1.3 nM
6,CNC(=O)c1c(-c2ccc(F)cc2)oc2cc(N(CCC(C)(C)O)S(C)(=O)=O)c(-c3cc(F)cc(-c4nc5ncccc5o4)c3)cc12 [Example 879],2.6 nM
7,CNC(=O)c1c(-c2ccc(F)cc2)oc2cc(N(C)S(C)(=O)=O)c(-c3ccc(F)c(-c4cc5cccnc5[nH]4)c3)cc12 [Example 855],1.2 nM
8,CNC(=O)c1c(-c2ccc(F)cc2)oc2cc(N(C)S(C)(=O)=O)c(-c3ccc(OC)c(-c4nc5cc(F)cc(F)c5o4)c3)cc12 [Example 551],1.3 nM
9,CNC(=O)c1c(-c2ccc(F)cc2)oc2cc(N(C)S(C)(=O)=O)c(-c3cnc(OC)c(-c4nc5c(F)cccc5o4)c3)cc12 [Example 507],0.68 nM
10,CNC(=O)c1c(-c2ccc(F)cc2)oc2cc(N(CCC(O)CO)S(C)(=O)=O)c(-c3ccc(OC)c(-c4nc5c(F)cc(F)cc5o4)c3)cc12 (stereo not shown) [Example 785],3.55 nM

# Same assay, conditions: Hepatitis C virus, 96 h, read-out: Replicon 1b IC50 (nM), HCV genotype 1b replicon cells, 96 hours incubation, NS3/4A ELISA readout
row,Structure (SMILES),IC50
1,CNC(=O)c1c(-c2ccc(F)cc2)oc2cc(N(C)S(C)(=O)=O)c(-c3ccc(OC)c(-c4nc5cc(F)ccc5o4)c3)cc12 [Example 404],2.6 nM
2,"CNC(=O)c1c(-c2ccc(F)cc2)oc2cc(N(C)S(C)(=O)=O)c(-c3cc(F)cc(F)c3)cc12 [Example 111, 5-(3,5-difluorophenyl)-2-(4-fluorophenyl)-N-methyl-6-[methyl(methylsulfonyl)amino]-1-benzofuran-3-carboxamide]",40 nM
3,"CNC(=O)c1c(-c2ccc(F)cc2)oc2cc(N(C)C(=O)CN(C)c3ccccc3)c(-c3ccccc3)cc12 [Example 74, 2-(4-fluorophenyl)-N-methyl-6-[methyl(N-methyl-N-phenylglycyl)amino]-5-phenyl-1-benzofuran-3-carboxamide]",395 nM
4,CNC(=O)c1c(-c2ccc(F)cc2)oc2cc(N(C)S(C)(=O)=O)c(-c3ccc(OC)c(-c4nc5cc(F)cnc5o4)c3)cc12 [Example 227],2.2 nM
5,CNC(=O)c1c(-c2ccc(F)cc2)oc2cc(N(C)S(C)(=O)=O)c(-c3ccc(OC)c(-c4nc5ncc(Cl)cc5o4)c3)cc12 [Example 239],2.6 nM
6,CNC(=O)c1c(-c2ccc(F)cc2)oc2cc(N(C)S(C)(=O)=O)c(-c3cccc(-c4nc5cncnc5o4)c3)cc12 [Example 242],4.8 nM
7,"CNC(=O)c1c(-c2ccc(F)cc2)oc2cc(N(C)S(C)(=O)=O)c(-c3ccc(OC)c(-c4nc5c(F)cccc5o4)c3)cc12 [Example 402, 5-(3-(4-fluorobenzo[d]oxazol-2-yl)-4-methoxyphenyl)-2-(4-fluorophenyl)-N-methyl-6-(N-methylmethylsulfonamido)benzofuran-3-carboxamide]",0.9 nM
8,CNC(=O)c1c(-c2ccc(F)cc2)oc2cc(N(C)S(C)(=O)=O)c(-c3ccc(OC)c(-c4nc5c(N)ncnc5[nH]4)c3)cc12 [Example 349],5.7 nM
9,"CCc1ccc(-c2cc3c(C(=O)NC)c(-c4ccc(F)cc4)oc3cc2N(C)S(C)(=O)=O)cc1 [Example 110, 5-(4-ethylphenyl)-2-(4-fluorophenyl)-N-methyl-6-[methyl(methylsulfonyl)amino]-1-benzofuran-3-carboxamide]",90 nM
10,CNC(=O)c1c(-c2ccc(F)cc2)oc2cc(N(C)S(C)(=O)=O)c(-c3ccc(OC)c(-c4nc5nccnc5[nH]4)c3)cc12 [Example 338],1.5 nM
11,"CNC(=O)c1c(-c2ccc(F)cc2)oc2cc(N(C)S(C)(=O)=O)c(-c3cccc(CNS(C)(=O)=O)c3)cc12 [Example 102, 2-(4-fluorophenyl)-N-methyl-6-[methyl(methylsulfonyl)amino]-5-(3-{[(methylsulfonyl)amino]methyl}phenyl)-1-benzofuran-3-carboxamide]",7 nM
12,CNC(=O)c1c(-c2ccc(F)cc2)oc2cc(N(C)S(C)(=O)=O)c(-c3cccc(-c4cc5cccc(Cl)c5[nH]4)c3)cc12 [Compound 371],5.8 nM
13,"CNC(=O)c1c(-c2ccc(F)cc2)oc2cc(N(CCCCOC(C)=O)S(C)(=O)=O)c(-c3ccccc3)cc12 [Example 30, 4-{[2-(4-fluorophenyl)-3-(methylcarbamoyl)-5-phenyl-1-benzofuran-6-yl] (methylsulfonyl)amino}butyl acetate]",40 nM
14,CNC(=O)c1c(-c2ccc(F)cc2)oc2cc(N(C)S(C)(=O)=O)c(-c3ccc(F)c(-c4nc5nccnc5[nH]4)c3)cc12 [Example 337],7.8 nM
15,CNC(=O)c1c(-c2ccc(F)cc2)oc2cc(N(C)S(C)(=O)=O)c(-c3ccc(Cl)c(-c4nc5cnccc5o4)c3)cc12 [Example 215],2.1 nM
16,CNC(=O)c1c(-c2ccc(F)cc2)oc2cc(N(C)S(C)(=O)=O)c(-c3cccc(-c4cc5ccc(OCc6ccccc6)cc5[nH]4)c3)cc12 [Example 360],30.5 nM
17,CNC(=O)c1c(-c2ccc(F)cc2)oc2cc(N(CCCN)S(C)(=O)=O)c(-c3cccc(-c4nc5ncccc5o4)c3)cc12 [Compound 396],18.2 nM
18,"CNC(=O)c1c(-c2ccc(F)cc2)oc2cc(N(C)S(C)(=O)=O)c(-c3cccc(-c4nc5ccccc5s4)c3)cc12 [Example 135, 5-(3-(benzo[d]thiazol-2-yl)phenyl)-2-(4-fluorophenyl)-N-methyl-6-(N-methylmethylsulfonamido)-1-benzofuran-3-carboxamide]",4 nM
19,"CNC(=O)c1c(-c2ccc(F)cc2)oc2cc(N(C)S(C)(=O)=O)c(-c3ccccc3F)cc12 [Example 78, 5-(2-fluorophenyl)-2-(4-fluorophenyl)-N-methyl-6-[methyl(methylsulfonyl)amino]-1-benzofuran-3-carboxamide]",215 nM
20,"CNC(=O)c1c(-c2ccc(F)cc2)oc2cc(N(C)S(C)(=O)=O)c(-c3ccccc3C)cc12 [Example 80, 2-(4-fluorophenyl)-N-methyl-6-[methyl (methylsulfonyl)amino]-5-(2-methylphenyl)-1-benzofuran-3-carboxamide]",241 nM
21,CNC(=O)c1c(-c2ccc(F)cc2)oc2cc(N(C)S(C)(=O)=O)c(-c3cccc(-c4nc5c(C)ccnc5[nH]4)c3O)cc12 [Example 318],18.7 nM
22,CNC(=O)c1c(-c2ccc(F)cc2)oc2cc(N(C)S(C)(=O)=O)c(-c3ccc(Cl)c(-c4nc5nccnc5[nH]4)c3)cc12 [Example 340],15.8 nM
23,"CCC(CC)CN(c1cc2oc(-c3ccc(F)cc3)c(C(=O)NC)c2cc1-c1ccccc1)S(C)(=O)=O [Example 23, 6-[(2-ethylbutyl) (methylsulfonyl)amino]-2-(4-fluorophenyl)-N-methyl-5-phenyl-1-benzofuran-3-carboxamide]",374 nM
24,CNC(=O)c1c(-c2ccc(F)cc2)oc2cc(N(C)S(C)(=O)=O)c(-c3cccc(-c4nc5cc(Cl)cnc5[nH]4)c3)cc12 [Example 331],1.8 nM
25,"CNC(=O)c1c(-c2ccc(F)cc2)oc2cc(N(C)S(C)(=O)=O)c(-c3ccccc3OC)cc12 [Example 79, 2-(4-fluorophenyl)-5-(2-methoxyphenyl)-N-methyl-6-[methyl (methylsulfonyl)amino]-1-benzofuran-3-carboxamide]",320 nM
26,CNC(=O)c1c(-c2ccc(F)cc2)oc2cc(N(C)S(C)(=O)=O)c(-c3cc(C#N)cc(-c4nc5cncnc5[nH]4)c3)cc12 [Example 348],72.7 nM
27,CNC(=O)c1c(-c2ccc(F)cc2)oc2cc(N(C)S(C)(=O)=O)c(-c3cc(F)cc(-c4cc5ccccc5[nH]4)c3)cc12 [Compound 372],13 nM

# Reference: US20120328569A1, “INHIBITORS OF HEPATITIS C VIRUS NS5B POLYMERASE” (priority 2010, published 2012)
